From ChEMBL document CHEMBL1201862, “PubChem BioAssay data set” (2004) come the findings set out here.

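Method: 48-hour compound exposure of cells in 96-well plates, five concentrations, linear interpolation of endpoints. GI50: concentration for 50% inhibition of growth.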 Calls of active or inactive are those of the source. Rule as the data show it: active = GI50 up to about 1.1 µM and inactive = higher.

Test systems include 786-0; BT-549; COLO 205; HCT-15; HL-60; Hs-578T; K562; MCF7; NCI-H460; NCI/ADR-RES; OVCAR-4; PC-3; SF-295; SF-539; SK-MEL-2; UO-31; TK-10.
Holding throughout (assay): NCI-60 cell line screen, 48 h

In the case of `CCOC(=O)C1(C#N)OC(=O)c2cnccc21` (stereo not given), the GI50 in the assay on 786-0 is > 100 µM (inactive); in the assay with BT-549, > 100 µM (inactive); with COLO 205 it was > 100 µM (inactive); in the assay with HCT-15, > 100 µM; in the assay with HL-60, > 100 µM (inactive); in the assay on Hs-578T, > 100 µM (inactive). In addition, the GI50 in the assay with K562, in the assay with MCF7, in the assay on NCI-H460, in the assay on NCI/ADR-RES, in the assay with OVCAR-4 and with PC-3 was > 100 µM (inactive) throughout. The GI50 in the assay on SF-295, in the assay with SF-539, in the assay with SK-MEL-2 and with UO-31 was > 100 µM (inactive) in each case.

As for `CC(C)=CCC[C@@H](C)C1=C(O)C(=O)C(C)=C(N)C1=O`, the GI50 is 33.4 µM (inactive) in the assay with 786-0; 42.2 µM (inactive) in the assay on BT-549; 27.9 µM (inactive) in the assay with COLO 205; 4.85 µM in the assay on HCT-15; 3.43 µM (inactive) in the assay with HL-60; 38.9 µM (inactive) in the assay with Hs-578T. The GI50 in the assay with K562 was 23.2 µM (inactive); in the assay on MCF7, 50.8 µM (inactive); in the assay with NCI-H460, 10.2 µM (inactive); with NCI/ADR-RES it was 3.9 µM (inactive); with OVCAR-4, 29.9 µM (inactive); in the assay with PC-3, 47.8 µM (inactive). Also, the GI50 was 12.9 µM (inactive) with SF-295; 31.6 µM (inactive) in the assay with SF-539; 29 µM (inactive) with SK-MEL-2; 50.2 µM (inactive) in the assay on TK-10; 11.1 µM (inactive) with UO-31.

As to `Cc1ccc(C(=O)Nc2ccc(CP(=O)(O)O)cc2CP(=O)(O)O)cc1NC(=O)Nc1cc(C(=O)Nc2ccc(CP(=O)(O)O)cc2CP(=O)(O)O)ccc1C`, the GI50 is > 100 µM (inactive) with 786-0; > 100 µM (inactive) in the assay on BT-549; > 100 µM (inactive) in the assay with COLO 205; > 100 µM with HCT-15; > 100 µM (inactive) with HL-60; > 100 µM (inactive) in the assay with Hs-578T. Moreover, the GI50 was > 100 µM (inactive) in the assay on K562; 60.5 µM (inactive) in the assay on MCF7; > 100 µM (inactive) with NCI-H460; > 100 µM (inactive) in the assay on NCI/ADR-RES; > 100 µM (inactive) in the assay on OVCAR-4; > 100 µM (inactive) in the assay on PC-3. Moreover, the GI50 in the assay with SF-295, in the assay on SF-539, in the assay on SK-MEL-2, in the assay with TK-10 and with UO-31 was > 100 µM (inactive) each time.

As to `Cc1ccc(C2SCC(=O)N2c2ccc(-n3c(-c4ccccc4)nc4ccccc4c3=O)cc2)cc1` (stereo not given), the GI50 with 786-0 is 18.7 µM (inactive); with BT-549 it was 20.2 µM (inactive); in the assay with COLO 205, 30.1 µM (inactive); with HCT-15, 6.65 µM; in the assay with HL-60, 19.5 µM (inactive); with Hs-578T, 10 µM (inactive). Further, the GI50 in the assay on K562 was 7.26 µM (inactive); with MCF7, 22.6 µM (inactive); with NCI-H460 it was 9.42 µM (inactive); in the assay with NCI/ADR-RES, 19.3 µM (inactive); with OVCAR-4 it was 22.8 µM (inactive); with PC-3, 12.7 µM (inactive). In addition, the GI50 was 14.7 µM (inactive) with SF-295; 12.4 µM (inactive) with SF-539; 20.8 µM (inactive) with SK-MEL-2; 50.9 µM (inactive) in the assay with TK-10; 16.2 µM (inactive) in the assay on UO-31.

Turning to `C=CCC1=CC2(OC)C(=O)C(OC)(OC)C1C1C(OC)(OC)C(=O)C(OC)=CC12CC=C` (stereo not given), the GI50 in the assay with 786-0 is > 100 µM (inactive); in the assay with BT-549, 49.9 µM (inactive); in the assay on COLO 205, > 100 µM (inactive); in the assay with HCT-15, > 100 µM; in the assay with HL-60, > 100 µM (inactive); in the assay with Hs-578T, > 100 µM (inactive). In addition, the GI50 with K562, with MCF7, in the assay with NCI-H460, with NCI/ADR-RES, with OVCAR-4 and in the assay with PC-3 was > 100 µM (inactive) in each case. In addition, the GI50 with SF-295, in the assay on SF-539, with SK-MEL-2, with TK-10 and in the assay on UO-31 was > 100 µM (inactive) in each case.

For the molecule `CN(Cc1nc2c(N)nc(N)nc2nc1N)c1ccc(C(=O)NC(CCC(=O)O)C(=O)O)cc1` (stereo not given), the GI50 is < 0.01 µM (active) in the assay with 786-0; > 100 µM (inactive) in the assay with BT-549; > 100 µM (inactive) in the assay on COLO 205; 0.0708 µM in the assay on HCT-15; < 0.01 µM (active) in the assay on HL-60; > 19.8 µM (inactive) in the assay with Hs-578T. The GI50 with MCF7 was 0.0596 µM (active); in the assay with NCI-H460, < 0.0122 µM (active); with NCI/ADR-RES, 0.225 µM (active); in the assay on OVCAR-4, > 100 µM (inactive); with PC-3 it was < 0.01 µM (active); in the assay with SF-295, 0.162 µM (active). Further, the GI50 was 0.0378 µM (active) with SF-539, > 100 µM (inactive) in the assay with SK-MEL-2, 0.752 µM (active) in the assay on TK-10 and 0.561 µM (active) in the assay with UO-31.

Consider `C=CC(O)C#Cc1cnc(OC)nc1OC` (stereo not given), for which the GI50 in the assay on 786-0 was 38.6 µM (inactive); in the assay with BT-549, > 100 µM (inactive); in the assay with COLO 205 it was 81.5 µM (inactive); with HCT-15 it was > 100 µM; in the assay on HL-60, 17.2 µM (inactive); in the assay on Hs-578T, > 100 µM (inactive). Further, the GI50 in the assay with K562 was 23.9 µM (inactive); in the assay on MCF7, 14.5 µM (inactive); with NCI-H460, > 100 µM (inactive); in the assay with NCI/ADR-RES, > 100 µM (inactive); with OVCAR-4 it was > 100 µM (inactive); in the assay on PC-3, > 100 µM (inactive). Besides, the GI50 in the assay on SF-295, in the assay with SF-539, in the assay with SK-MEL-2, in the assay with TK-10 and in the assay on UO-31 was > 100 µM (inactive) each time.

Consider `CC12CCC(=O)[C@@]1(C)CCCC2=O` (stereo not given in full), for which the GI50 was > 100 µM (inactive) with 786-0; > 100 µM (inactive) in the assay on BT-549; > 100 µM (inactive) in the assay with COLO 205; > 100 µM with HCT-15; > 100 µM (inactive) with HL-60; > 100 µM (inactive) with Hs-578T. The GI50 in the assay with K562, with MCF7, with NCI-H460, with NCI/ADR-RES, in the assay with OVCAR-4 and with PC-3 was > 100 µM (inactive) throughout. Besides, the GI50 with SF-295, in the assay with SF-539, in the assay on SK-MEL-2, in the assay on TK-10 and in the assay on UO-31 was > 100 µM (inactive) throughout.

On to `CC(=O)N(CCc1ccccc1)C(C)(C#N)c1ccccc1` (stereo not given), for which the GI50 in the assay with 786-0 is > 100 µM (inactive); in the assay with BT-549, > 100 µM (inactive); in the assay with COLO 205, > 100 µM (inactive); in the assay on HCT-15 it was > 100 µM; in the assay on HL-60 it was > 100 µM (inactive); in the assay on Hs-578T, > 100 µM (inactive). Also, the GI50 in the assay with K562, in the assay on MCF7, in the assay with NCI/ADR-RES, in the assay with OVCAR-4, with PC-3 and with SF-295 was > 100 µM (inactive) in each case. The GI50 in the assay on SF-539, in the assay with SK-MEL-2, in the assay on TK-10 and in the assay on UO-31 was > 100 µM (inactive) throughout.
